Publication PMC11953117 (Cancer Chemotherapy and Pharmacology, 2025)
Like-named read-outs stand apart in the source and are kept apart here.

Tests used:
[1] = Relative dose intensity (RDI) of capivasertib monotherapy; assay type: in vivo, human
Description: (§1) The exposure–response analyses were conducted using a subset of patients from the PopPK analysis where capivasertib was used as monotherapy. […] As different schedules were assessed between and within studies, the exposure metrics were derived for the last dose of the last dosing day in the second week of treatment (i.e. on days 14, 11, and 9 for the continuous, [4/3] and [2/5] schedules, respectively), to ensure SS conditions, using the planned dose. […] The relative dose intensity (RDI) was calculated as the percentage of the average weekly dose relative to the PWD to examine the tolerability of capivasertib monotherapy at the given dosing schedules.

[2] = Exposure–response analysis (logistic regression) of safety endpoints; assay type: in vivo, human
Description: as §1
Logistic regression models were used to establish associations between the probability of the safety endpoints with the exposure metrics at a statistically significant level of 0.005.

[3] = set-up: method as in PMID 29066505, PMID 26931343; settings: monotherapy, cited from earlier work; for recommended phase 2 dose: based on DLTs
[4] = univariate logistic regression, significance level 0.005

Question: For `NC1(C(=O)N[C@@H](CCO)c2ccc(Cl)cc2)CCN(c2ncnc3[nH]ccc23)CC1` [capivasertib, 4-amino-N-[(1S)-1-(4-chlorophenyl)-3-hydroxypropyl]-1-(7H-pyrrolo[2,3-d]pyrimidin– 4-yl)piperidine-4-carboxamide], which RDI ([1]; OAK, [4/3] BID, 480 mg, PWD 3840 mg, N=30, median (range)) is on record?
Answer: 100 (45.6–115.4) %

Question: And the RDI ([1]; Study 1, Continuous BID, 80 mg, PWD 1120 mg, N=5, median (range))?
Answer: 100.0 (95.9–100.6) %

Question: What about the RDI ([1]; Study 1, Continuous BID, 160 mg, PWD 2240 mg, N=5, median (range)) of the same compound?
Answer: 97.6 (83.5–102.3) %

Question: What about the RDI ([1]; Study 1, Continuous BID, 240 mg, PWD 3360 mg, N=6, median (range)) of the same compound?
Answer: 100.3 (98.8–100.9) %

Question: What about the RDI ([1]; Study 1, Continuous BID, 320 mg, PWD 4480 mg, N=12, median (range)) of the same compound?
Answer: 98.1 (37.2–102.4) %

Question: And the RDI ([1]; Study 1, Continuous BID, 400 mg, PWD 5600 mg, N=11, median (range))?
Answer: 80.3 (55.4–102.1) %

Question: What about the RDI ([1]; Study 1, Continuous BID, 480 mg, PWD 6720 mg, N=6, median (range)) of the same compound?
Answer: 50.2 (45.3–83.3) %

Question: What about the RDI ([1]; Study 1, Continuous BID, 600 mg, PWD 8400 mg, N=2, median (range)) of the same compound?
Answer: 103.1 (100–106.2) %

Question: And the RDI ([1]; Study 1, [2/5] BID, 640 mg, PWD 2560 mg, N=8, median (range))?
Answer: 94.0 (80.9–109.1) %

Question: And the RDI ([1]; Study 1, [2/5] BID, 800 mg, PWD 3200 mg, N=14, median (range))?
Answer: 101.1 (42.5–133.3) %

Question: And the RDI ([1]; Study 1, [4/3] BID, 480 mg, PWD 3840 mg, N=127, median (range))?
Answer: 97.9 (26.4–138.9) %

Question: And the RDI ([1]; Study 1, [4/3] BID, 640 mg, PWD 5120 mg, N=10, median (range))?
Answer: 100.0 (70.5–122.2) %

Question: And the RDI ([1]; Study 4 (Japanese patients), Continuous BID, 80 mg, PWD 1120 mg, N=3, median (range))?
Answer: 100.0 (88.7–102.3) %

Question: What about the RDI ([1]; Study 4 (Japanese patients), Continuous BID, 240 mg, PWD 3360 mg, N=7, median (range)) of the same compound?
Answer: 100.0 (41.9–106.7) %

Question: And the RDI ([1]; Study 4 (Japanese patients), Continuous BID, 320 mg, PWD 4480 mg, N=6, median (range))?
Answer: 91.5 (59.3–101.1) %

Question: And the RDI ([1]; Study 4 (Japanese patients), Continuous BID, 400 mg, PWD 5600 mg, N=5, median (range))?
Answer: 72.1 (51.4–85.7) %

Question: And the RDI ([1]; Study 4 (Japanese patients), [2/5] BID, 640 mg, PWD 2560 mg, N=6, median (range))?
Answer: 111.2 (100–119) %

Question: What about the RDI ([1]; Study 4 (Japanese patients), [4/3] BID, 360 mg, PWD 2880 mg, N=8, median (range)) of the same compound?
Answer: 107.9 (91.4–112) %

Question: And the RDI ([1]; Study 4 (Japanese patients), [4/3] BID, 480 mg, PWD 3840 mg, N=6, median (range))?
Answer: 107.9 (79.1–108.6) %

Question: What about the RDI ([1]; [4/3] and [2/5] schedules at all dose levels) of the same compound?
Answer: > 90%

Question: And the RDI ([1]; continuous schedule, 400 and 480 mg doses)?
Answer: ≤ 80%

Question: And the “probability of hyperglycemia AE grade ≥ 3 and increased blood glucose > 13.9 mmol/L” value ([2]; [2/5] 640 mg compared with [4/3] 480 mg)?
Answer: higher probability

Question: What about the “probabilities of hyperglycemia AE grade ≥ 3 and increased blood glucose > 13.9 mmol/L: effect of schedule” value ([2]; at a given dose) of the same compound?
Answer: did not depend on the schedule

Question: What about the “probability of AEDD, AEDM and diarrhea AE grade ≥ 2: effect of schedule” value ([2]; at a given dose, intermittent schedules compared with continuous, statistically significant) of the same compound?
Answer: lower probability of events

Question: What about the “probability of hyperglycemia AE grade ≥ 3 and increased blood glucose > 13.9 mmol/L: effect of schedule” value ([2]; at a given weekly dose, intermittent schedules compared with continuous, statistically significant) of the same compound?
Answer: higher probability of events

Question: What about the “probability of rash AE grade ≥ 2, AEDD, AEDM, AE grade ≥ 3, SAE and diarrhea AE grade ≥ 2” value ([2]; continuous 320 mg (4480 mg weekly) compared with [4/3] 480 mg (3840 mg weekly)) of the same compound?
Answer: higher

Question: What about the “relationships between exposure metrics and AE grade ≥ 1” value ([2]; logistic regression, significance level 0.005) of the same compound?
Answer: No significant relationships

Question: And the “exposure metrics with significant relationship to AE grade ≥ 3” value [2, 4]?
Answer: dose, PWD, AUC, AUCPWD, Cmax, and Cmin

Question: And the “exposure metrics with significant relationship to AE leading to dose discontinuation” value [2, 4]?
Answer: PWD

Question: What about the “exposure metrics with significant relationship to AE leading to dose modification” value [2, 4] of the same compound?
Answer: PWD, AUC, AUCPWD, Cmax, and Cmin

Question: And the “exposure metrics with significant relationship to SAE” value [2, 4]?
Answer: dose, PWD, AUC, AUCPWD, Cmax, and Cmin

Question: What about the “exposure metrics with significant relationship to diarrhea AE grade ≥ 2” value [2, 4] of the same compound?
Answer: PWD, AUCPWD

Question: What about the “exposure metrics with significant relationship to hyperglycemia AE grade ≥ 3” value [2, 4] of the same compound?
Answer: dose, AUC, AUCPWD, Cmax, and Cmin

Question: And the “exposure metrics with significant relationship to increased blood glucose > 13.9 mmol/L” value [2, 4]?
Answer: dose, AUC, AUCPWD, Cmax, and Cmin

Question: And the “exposure metrics with significant relationship to rash AE grade ≥ 2” value [2, 4]?
Answer: PWD

Question: And the “recommended phase 2 dose” value ([3]; [2/5] schedule)?
Answer: 640 mg BID

Question: And the “recommended phase 2 dose” value ([3]; [4/3] schedule)?
Answer: 480 mg BID

Question: And the “recommended phase 2 dose” value ([3]; continuous schedule)?
Answer: 320 mg BID

Question: And the “dose-limiting toxicities (DLTs)” value ([3]; first-in-human study)?
Answer: diarrhea, rash, and hyperglycemia
